Laboratory results reported in article PMC10247784, “Physiological activation of human and mouse bitter taste receptors by bile acids” (Communications Biology, 2023).

Target: T1, mouse Tas2r117 (Mus musculus, UniProt Q7M715)
T1 construct: expressed in transfected cells; host or cells: HEK293T-Gα16gust44
T1 sequence (Q7M715 1-330): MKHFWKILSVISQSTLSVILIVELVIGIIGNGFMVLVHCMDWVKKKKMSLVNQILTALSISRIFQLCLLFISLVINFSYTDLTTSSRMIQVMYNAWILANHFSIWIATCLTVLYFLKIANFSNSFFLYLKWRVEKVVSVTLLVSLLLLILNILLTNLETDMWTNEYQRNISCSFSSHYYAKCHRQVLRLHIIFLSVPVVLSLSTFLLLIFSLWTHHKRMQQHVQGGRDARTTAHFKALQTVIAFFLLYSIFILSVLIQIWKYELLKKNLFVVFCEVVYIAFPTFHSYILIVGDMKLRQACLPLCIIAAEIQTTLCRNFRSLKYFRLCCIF
Assay: Calcium imaging assay (FLIPR), HEK293T-Gα16gust44 cells transfected with mouse Tas2r117
Assay type: cell-based
Conditions: for Δ F/F: Tas2r117; for RLU: sheet Tas2r117, time trace
Method: This set of bile acids was chosen because of their commercial availability in high purities, their diversity within the class of bile acids and their previous detection and quantitation in human blood. Stock solutions were prepared in DMSO.
As basal growth medium for the HEK293T-Gα16gust44 cell line[17],[59] served Dulbecco’s modified eagle medium (DMEM) (Thermo Fisher Scientific, Darmstadt, Germany) supplemented with 10 % fetal bovine serum (Sigma-Aldrich, Steinheim, Germany), 2 mM L-glutamine (Sigma-Aldrich, Steinheim, Germany), 100 units/ml penicillin (Sigma Aldrich, Steinheim, Germany) and 100 µg/ml streptomycin (Sigma Aldrich, Steinheim, Germany). Growth conditions were 37 °C, 5 % CO2 and saturated air-humidity[60].
HEK293T-Gα16gust44 cells were seeded on poly-D-lysine (10 µg/ml) coated 96-well plates to reach a confluence of 40-60 % the next day. For transient transfection 150 ng of plasmid DNA containing the receptor of interest and 0.3 µl lipofectamine 2000 (Thermo Fisher Scientific, Darmstadt, Germany) per well were used and transfection took place according to the manual of lipofectamine 2000. […] The empty vector DNA (mock) was transfected as negative control[14],[41].
Cells were loaded using the calcium-sensitive fluorescent dye Fluo-4-AM (Abcam, Cambridge, Great Britain) in the presence of 2.5 mM probenecid (Sigma-Aldrich, Steinheim, Germany) the day after transfection[13],[41]. 1 h after loading, cells were washed with C1 buffer using a BioTek Cell Washer, incubated in the dark for half an hour and washed again. For automated agonist application and measurement of fluorescence changes, a FLIPR^TETRA device (Molecular Devices, San José, United States) was used. Viability of cells was tested by application of 100 nM Somatostatin 14 (Bachem, Bubendorf, Switzerland)[42].
Measured data were negative control corrected by subtracting the signal of the mock-transfected cells and exported to Microsoft Excel using the FLIPR software ScreenWorks 4.2. In Microsoft Excel software, standardization of maximum fluorescence intensities to the basal fluorescence and normalization to the buffer-only control was done to calculate the relative fluorescence changes (ΔF/F).
Initial screening experiments performed in duplicate wells were confirmed by at least one replication and representative traces were selected for display. All dose-response relationships were determined by three independent experiments (biological replicates) performed in duplicates (technical replicates). Threshold concentrations, defined as lowest substance concentrations leading to statistically significant elevated fluorescence changes in receptor-transfected cells compared with empty vector-transfected cells, were determined using SigmaPlot with Student’s t-test to evaluate statistical significance (p < 0.01).

Compound: C[C@H](CCC(=O)NCC(=O)O)[C@H]1CC[C@H]2[C@@H]3[C@H](O)C[C@@H]4C[C@H](O)CC[C@]4(C)[C@H]3C[C@H](O)[C@]12C [Glycocholic Acid, glycocholic acid]
- Δ F/F (conc. 0,01 mM): 0.04745
- Δ F/F (conc. 0,1 mM): 0.1208
- Δ F/F (conc. 0,03 mM): 0.08527
- Δ F/F (conc. 0,3 mM): 0.126
- Δ F/F (conc. 0,0003 mM): 0.0009082
- Δ F/F (conc. 0,001 mM): -0.007003
- Δ F/F (conc. 0,003 mM): 0.01508
- RLU (Time (s) 0): 0 RLU
- RLU (Time (s) 2): -1.6624 RLU
- RLU (Time (s) 4): 36.4597 RLU
- RLU (Time (s) 6): 6 RLU
- RLU (Time (s) 8): 8.49 RLU
- RLU (Time (s) 12): -1.574 RLU
- RLU (Time (s) 14): -17.8222 RLU
- RLU (Time (s) 16): -9.405 RLU
- RLU (Time (s) 18): -10.6465 RLU
- RLU (Time (s) 18.797): -31.8582 RLU
- RLU (Time (s) 20.797): -50.2175 RLU
- RLU (Time (s) 22.797): -35.3697 RLU
- RLU (Time (s) 24.797): -21.9519 RLU
- RLU (Time (s) 26.797): 21.3834 RLU
- RLU (Time (s) 28.797): 104.133 RLU
- RLU (Time (s) 30.797): 136.733 RLU
- RLU (Time (s) 32.797): 195.234 RLU
- RLU (Time (s) 34.797): 290.459 RLU
- RLU (Time (s) 36.797): 340.932 RLU
- RLU (Time (s) 38.797): 397.791 RLU
- RLU (Time (s) 40.797): 414.428 RLU
- RLU (Time (s) 42.797): 437.759 RLU
- RLU (Time (s) 44.797): 439.85 RLU
- RLU (Time (s) 46.797): 450.862 RLU
- RLU (Time (s) 48.797): 498.067 RLU
- RLU (Time (s) 50.797): 490.971 RLU
- RLU (Time (s) 52.797): 511.962 RLU
- RLU (Time (s) 54.797): 520.574 RLU
- RLU (Time (s) 56.797): 524.281 RLU
- RLU (Time (s) 58.797): 554.582 RLU
- RLU (Time (s) 60.797): 523.267 RLU
- RLU (Time (s) 62.797): 554.128 RLU
- RLU (Time (s) 64.797): 560.589 RLU
- RLU (Time (s) 66.797): 586.355 RLU
- RLU (Time (s) 68.797): 595.813 RLU
- RLU (Time (s) 70.797): 569.01 RLU
- RLU (Time (s) 72.797): 587.543 RLU
- RLU (Time (s) 74.797): 600.561 RLU
- RLU (Time (s) 76.797): 625.108 RLU
- RLU (Time (s) 78.797): 601.569 RLU
- RLU (Time (s) 80.797): 601.653 RLU
- RLU (Time (s) 82.797): 613.098 RLU
- RLU (Time (s) 84.797): 590.202 RLU
- RLU (Time (s) 86.797): 586.509 RLU
- RLU (Time (s) 88.797): 591.824 RLU
- RLU (Time (s) 90.797): 608.043 RLU
- RLU (Time (s) 92.797): 567.854 RLU
- RLU (Time (s) 94.797): 592.934 RLU
- RLU (Time (s) 96.797): 555.343 RLU
- RLU (Time (s) 98.797): 591.525 RLU
- RLU (Time (s) 100.797): 565.961 RLU
- RLU (Time (s) 102.797): 558.057 RLU
- RLU (Time (s) 104.797): 568.873 RLU
- RLU (Time (s) 106.797): 600.41 RLU
- RLU (Time (s) 108.797): 557.119 RLU
- RLU (Time (s) 110.797): 566.614 RLU
- RLU (Time (s) 112.797): 544.906 RLU
- RLU (Time (s) 114.797): 533.624 RLU
- RLU (Time (s) 116.797): 578.387 RLU
- RLU (Time (s) 118.797): 540.575 RLU
- RLU (Time (s) 120.797): 553.404 RLU
- RLU (Time (s) 122.797): 531.136 RLU
- RLU (Time (s) 124.797): 541 RLU
- RLU (Time (s) 126.797): 530.303 RLU
- RLU (Time (s) 128.797): 505.327 RLU
- RLU (Time (s) 130.797): 508.223 RLU
- RLU (Time (s) 132.797): 529.676 RLU
- RLU (Time (s) 134.797): 490.998 RLU
- RLU (Time (s) 136.797): 480.544 RLU
- RLU (Time (s) 137.562): 494.151 RLU
- RLU (Time (s) 143.578): 475.248 RLU
- RLU (Time (s) 149.578): 448.977 RLU
- RLU (Time (s) 155.578): 429.963 RLU
- RLU (Time (s) 161.578): 410.536 RLU
- RLU (Time (s) 167.578): 411.276 RLU
- RLU (Time (s) 173.578): 378.737 RLU
- RLU (Time (s) 179.578): 356.849 RLU
- RLU (Time (s) 191.578): 338.845 RLU
- RLU (Time (s) 197.578): 316.205 RLU
- RLU (Time (s) 209.578): 296.441 RLU
- RLU (Time (s) 221.578): 181.834 RLU
- RLU (Time (s) 233.578): 175.03 RLU
- RLU (Time (s) 239.578): 155.758 RLU
- RLU (Time (s) 245.578): 143.461 RLU
- RLU (Time (s) 293.578): 87.8538 RLU
- RLU (Time (s) 299.578): 79.8727 RLU
- RLU (Time (s) 305.578): 78.6198 RLU
- RLU (Time (s) 311.578): 69.0671 RLU
- RLU (Time (s) 317.578): 91.9062 RLU
- RLU (Time (s) 323.578): 87.6118 RLU
- RLU (Time (s) 329.578): 65.9416 RLU
- RLU (Time (s) 335.578): 41.2589 RLU
- RLU (Time (s) 341.578): 94.1086 RLU
- RLU (Time (s) 347.578): 67.2353 RLU
- RLU (Time (s) 353.578): 54.4225 RLU
- RLU (Time (s) 359.578): 85.0918 RLU
- EC50 (calculated where receptor saturation was reached, read-out: EC50 Tas2r117): 16 ± 2.5 µM
- Activation threshold concentration Tas2r117 (p < 0.01 vs empty vector): 3 µM
